In the supplement of paper PMC10307832:

Legend:
Assay in all cases: relative viability (nuclei count vs DMSO), 5 days (fraction); higher = more cells survive
[1] = compound: Cc1ccc2nc(NCCN)c3ncc(C)n3c2c1 + O=C(c1cc(Cc2n[nH]c(=O)c3ccccc23)ccc1F)N1CCN(C(=O)C2CC2)CC1 [Olaparib] (partner 8 µM)
In short: (§1)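 Five library-drug doses in √10 steps were combined with a fixed anchor-drug dose, or a single drug was given alone, by pin tool to lung cancer cell lines in 1536-well plates the day after seeding. Nuclei were stained and counted after 5 days. Relative viability is the nuclei count in treated wells over that in vehicle wells, taken as the median of duplicate plates.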

[2] = compound: Cc1ccc2nc(NCCN)c3ncc(C)n3c2c1 + CC(C)C[C@H](NC(=O)[C@H](Cc1ccccc1)NC(=O)c1cnccn1)B(O)O [Bortezomib] (partner 0.002 µM)
In short: as §1

Salubrinal + Dasatinib = compound: O=C(/C=C/c1ccccc1)NC(NC(=S)Nc1cccc2cccnc12)C(Cl)(Cl)Cl [Salubrinal] + Cc1nc(Nc2ncc(C(=O)Nc3c(C)cccc3Cl)s2)cc(N2CCN(CCO)CC2)n1 [Dasatinib] (partner 0.075 µM)
In short: as §1

[3] = compound: Cc1ccc2nc(NCCN)c3ncc(C)n3c2c1 + CS(=O)(=O)N1CCN(Cc2cc3nc(-c4cccc5[nH]ncc45)nc(N4CCOCC4)c3s2)CC1 [Pictilisib] (partner 1 µM)
In short: as §1

Cell Line	relative viability ([1]; first compound 0.04 µM)	relative viability ([1]; first compound 0.1265 µM)	relative viability ([1]; first compound 0.4 µM)	relative viability ([1]; first compound 1.265 µM)	relative viability ([1]; first compound 4 µM)	relative viability ([2]; first compound 0.04 µM)	relative viability ([2]; first compound 0.1265 µM)	relative viability ([2]; first compound 0.4 µM)	relative viability ([2]; first compound 1.265 µM)	relative viability ([2]; first compound 4 µM)	relative viability (Salubrinal + Dasatinib; first compound 0.08 µM)	relative viability (Salubrinal + Dasatinib; first compound 0.253 µM)	relative viability (Salubrinal + Dasatinib; first compound 0.8 µM)	relative viability (Salubrinal + Dasatinib; first compound 2.53 µM)	relative viability (Salubrinal + Dasatinib; first compound 8 µM)	relative viability ([3]; first compound 0.04 µM)	relative viability ([3]; first compound 0.1265 µM)	relative viability ([3]; first compound 0.4 µM)	relative viability ([3]; first compound 1.265 µM)	relative viability ([3]; first compound 4 µM)
NCI-H596	0.77	0.857	0.771	0.637	0.715	1.01	0.937	0.978	0.976	0.971	0.633	0.509	0.569	0.633	0.56	0.384	0.37	0.285	0.309	0.411
A-427	0.723	0.672	0.693	0.711	0.63	1.05	1.15	0.929	0.978	0.962	0.724	0.643	0.747	0.68	0.654	0.743	0.653	0.596	0.691	0.702
EMC-BAC-2	0.519	0.502	0.507	0.456	0.488	1.12	1.12	0.957	1.13	1.05	0.305	0.334	0.359	0.411	0.335	0.586	0.58	0.554	0.569	0.579
NCI-H441	0.631	0.384	0.622	0.646	0.549	0.72	0.463	0.423	0.533	0.438	0.781	0.5	0.756	0.65	0.47	0.557	0.464	0.454	0.505	0.472
LCLC-103H	0.752	0.748	0.778	0.743	0.739	1.15	1.23	0.944	1.2	1.04	0.501	0.35	0.514	0.53	0.507	0.534	0.644	0.561	0.6	0.576
HCC-827	0.689	0.73	0.661	0.639	0.607	1.12	1.05	0.958	1.09	1.01	0.357	0.251	0.27	0.326	0.393	0.947	0.929	0.891	0.86	1.07
NCI-H1355	0.79	0.72	0.754	0.764	0.659	1.25	1.19	1.02	1.14	1.06	0.764	0.569	0.806	0.685	0.603	0.46	0.449	0.406	0.392	0.386
NCI-H1734	0.666	0.617	0.658	0.321	0.553	1.04	0.965	0.942	0.935	0.999	0.485	0.462	0.574	0.465	0.422	0.457	0.481	0.451	0.409	0.424
HARA	0.73	0.782	0.791	0.759	0.365	1.14	1.11	1.13	1.06	1.1	0.341	0.29	0.282	0.265	0.263	0.524	0.362	0.436	0.39	0.418
HCC-15	0.648	0.752	0.7	0.75	0.622	1.02	1	0.864	0.975	0.783	0.723	0.586	0.701	0.627	0.498	0.799	0.761	0.666	0.707	0.694
LCLC-97TM1	0.491	0.428	0.462	0.417	0.338	0.846	0.614	0.767	0.937	0.585	1.02	0.731	1.01	0.969	0.782	0.208	0.248	0.187	0.216	0.199
RERF-LC-KJ	0.995	0.919	1.06	0.801	0.579	1.19	0.968	1.11	1.07	0.983	0.928	0.771	0.92	0.827	0.634	0.511	0.433	0.44	0.542	0.501
NCI-H1651	0.178	0.181	0.179	0.18	0.175	0.966	0.954	1.07	0.972	0.676	0.487	0.259	0.452	0.393	0.35	0.512	0.477	0.593	0.589	0.506
NCI-H1793	1.06	0.812	0.836	0.651	0.795	–	–	–	–	–	0.448	0.421	0.359	0.385	0.398	0.393	0.381	0.383	0.389	0.309
NCI-H2023	0.503	0.56	0.541	0.458	0.254	1.17	1.01	0.938	1.16	0.858	0.707	0.489	0.671	0.593	0.343	0.222	0.242	0.238	0.288	0.201
LC-2-ad	0.729	0.743	0.71	0.768	0.71	1.06	0.978	1	1.02	0.81	0.543	0.354	1.11	0.581	0.448	0.504	0.683	0.439	0.429	0.423
NCI-H1703	0.393	0.362	0.619	0.47	0.437	0.34	0.329	0.329	0.347	0.234	–	–	–	–	–	0.299	0.248	0.257	0.321	0.233
NCI-H1437	0.641	0.613	0.616	0.643	0.553	0.628	0.467	0.474	0.539	0.557	0.406	0.42	0.487	0.507	0.243	0.427	0.449	0.443	0.369	0.374
SK-LU-1	0.515	0.422	0.513	0.455	0.484	1.39	1.28	0.989	1.29	1.02	0.188	0.22	0.181	0.172	0.176	0.573	0.507	0.604	0.562	0.291
H3255	0.561	0.482	0.516	0.59	0.47	0.976	0.745	0.695	0.943	0.691	0.291	0.366	0.459	0.35	0.356	0.555	0.431	0.487	0.38	0.456

Cell Line	relative viability ([1]; first compound 0.04 µM)	relative viability ([1]; first compound 0.1265 µM)	relative viability ([1]; first compound 0.4 µM)	relative viability ([1]; first compound 1.265 µM)	relative viability ([1]; first compound 4 µM)	relative viability ([2]; first compound 0.04 µM)	relative viability ([2]; first compound 0.1265 µM)	relative viability ([2]; first compound 0.4 µM)	relative viability ([2]; first compound 1.265 µM)	relative viability ([2]; first compound 4 µM)	relative viability (Salubrinal + Dasatinib; first compound 0.08 µM)	relative viability (Salubrinal + Dasatinib; first compound 0.253 µM)	relative viability (Salubrinal + Dasatinib; first compound 0.8 µM)	relative viability (Salubrinal + Dasatinib; first compound 2.53 µM)	relative viability (Salubrinal + Dasatinib; first compound 8 µM)	relative viability ([3]; first compound 0.04 µM)	relative viability ([3]; first compound 0.1265 µM)	relative viability ([3]; first compound 0.4 µM)	relative viability ([3]; first compound 1.265 µM)	relative viability ([3]; first compound 4 µM)
Calu-6	0.574	0.601	0.6	0.578	0.367	1.08	0.891	1.03	0.912	0.603	–	–	–	–	–	1	0.781	0.989	0.836	0.475
NCI-H1792	0.499	0.279	–	0.458	0.295	0.963	0.915	0.912	0.94	0.968	0.822	–	0.723	0.81	0.702	0.348	0.244	0.309	0.259	0.242
NCI-H2170	0.627	0.702	0.56	0.549	0.637	–	–	–	–	–	0.764	0.526	0.71	0.57	0.534	0.31	0.337	0.361	0.292	0.319
EBC-1	0.679	0.681	0.72	0.602	0.546	0.549	0.526	0.486	0.406	0.31	–	–	–	–	–	0.4	0.35	0.336	0.246	0.263
NCI-H2342	0.593	0.439	0.453	0.411	0.503	–	–	–	–	–	0.304	0.278	0.305	0.298	0.291	–	–	–	–	–
NCI-H358	0.646	0.644	0.603	0.607	0.517	–	–	–	–	–	0.173	0.23	0.154	0.149	0.145	0.348	0.394	0.364	0.379	0.367
SK-MES-1	0.716	0.736	0.745	0.669	0.468	–	–	–	–	–	0.428	0.32	0.408	0.371	0.271	0.411	0.345	0.341	0.378	0.35
NCI-H1563	–	–	–	–	–	0.859	0.757	0.875	0.968	1.05	0.446	0.514	0.555	0.453	0.502	0.706	0.582	0.701	0.607	0.633
NCI-H1623	–	–	–	–	–	–	–	–	–	–	0.475	0.485	0.54	0.514	0.572	–	–	–	–	–
NCI-H1299	0.973	0.965	0.985	0.891	0.767	1	0.993	1.01	1.05	0.972	–	–	–	–	–	0.864	0.761	0.735	0.55	0.263
NCI-H1944	0.388	0.387	0.403	0.397	0.388	–	–	–	–	–	0.233	0.216	0.205	0.226	0.246	0.331	0.37	0.319	0.363	0.328
NCI-H1395	0.47	0.467	0.491	0.429	0.437	–	–	–	–	–	0.409	0.443	0.472	0.4	0.392	0.689	0.638	0.642	0.828	0.551
NCI-H522	0.62	0.708	0.585	0.648	0.635	–	–	–	–	–	0.988	0.976	0.981	0.869	0.972	–	–	–	–	–
A549	0.409	0.406	0.333	0.317	0.301	–	–	–	–	–	–	–	–	–	–	0.587	0.439	0.451	0.451	0.345
NCI-H1648	1.08	0.846	0.789	0.843	0.666	–	–	–	–	–	–	–	–	–	–	–	–	–	–	–
SW 900	–	0.865	0.884	0.874	0.827	–	–	–	–	–	1.09	–	0.66	0.584	0.497	–	–	–	–	–
IA-LM	0.73	0.793	0.974	0.795	0.721	0.895	0.94	0.844	0.696	0.66	–	–	–	–	–	0.343	0.335	0.188	0.238	0.347
LK-2	0.707	0.778	0.706	0.757	0.672	–	–	–	–	–	0.378	0.302	0.296	0.312	0.342	0.585	0.547	0.604	0.406	0.463
HCC-44	0.999	0.96	0.955	1	0.977	0.93	0.897	0.806	0.882	0.922	–	–	–	–	–	0.692	0.777	0.595	0.535	0.565
